Patent EP0146113A2, “Active agent and therapeutical composition for the treatment of deincephalon failures of nervous deseases and skin diseases” (Aderhold, Dieter, priority 1983, dated 1985)

Columns and labels:
[1] = tested on: Patienten; test: Long-term trial, subcutaneous application over 2 - 15 months in a series of patients (MS therapy); assay type: in vivo
Excerpt: Das Tetrapeptid His-Phe-Arg-Trp wurde in einem Langzeitversuch über 2 - 15 Monate hinweg einer Reihe von Patienten subkutan appliziert. Dabei wurden folgende Ergebnisse erhalten: • Zwei Drittel der Patienten hatten ein subjektives - aber durchaus auch objektivierbares - Gefühl der Frische, höheren Lebensmut und größerer Leistungsfähigkeit.
Verschiedene Anhaltspunkte machten deutlich, daß es sich nicht um einen Cortisoneffekt handelte.
Wenn ein bis zwei Tage lang nicht oder mit Placebos behandelt wurde, trat bei allen Patienten eine objektive Verschlechterung in Richtung der bisherigen Beschwerden auf; auch subjektiv waren alle Patienten eindrucksvoll in der Lage, anhand der Wirkung Spritzen mit Substanz von Placebos zu unterscheiden. Die richtige Dosierung des erfindungsgemäßen Mittels ist kritisch. Uberdosierungen machten sich in Form von erhöhtem Blutdruck, Hitzegefühl, Kurzatmigkeit und bei kreislauflabilen Patienten in deren typischen Beschwerden bemerkbar. Die normale Tagesdosis des Tentrapeptides zur MS-Therapie wurde auf etwa […] festgesetzt, in Einzelfällen - solange es ohne die obengenannten Uberdosierungsphänomene vertragen wird - höher bzw. im Sinne einer Erhaltungsdosis oder bei kreislauflabilen Patienten auch niedriger.

[2] = Comparative trials with peptides of six, four or two amino acids of the chain Met-Glu-His-Phe-Arg-Trp-Gly; assay type: in vivo
Procedure: Die Wirkung von etwa 0,3 mg <-MSH entsprach etwa der Wirkung von 0,1 mg dieses Tetrapeptides.

[3] = Therapeutic use of melanotropin peptides, overall results (no method given); assay type: in vivo; settings: general statement, treatment of diencephalon/hypophysis dysfunction, Multiple Sklerose
[4] = tested on: Patienten; test: Subcutaneous injection of the chemically pure substances in a series of patients; assay type: in vivo; settings: subkutan
Excerpt: Es wurden ferner die chemisch reinen Substanzen α -MSH und ß -MSH subkutan bei einer Reihe von Patienten gespritzt.

[5] = Duration of effect in the body; assay type: in vivo; settings: without depot substance
Procedure: (§1) Die Erfahrungen mit α-, β- und 4 -MSH bzw. dem erwähnten Tetrapeptid zeigen, daß diese Substanzen ausserordentlich empfindlich und labil sind. […] Bei der Verbindung des Tetrapeptides mit einer Depotsubstanz sollte eine Wirkungsdauer von 12-15 Stunden angestrebt werden.
(§2) Während die Halbwertzeit des reinen Tetrapeptides ca. 1 Woche beträgt, trat bei dem hergestellten Depotpräparat ein geringerer Wirkungsverlust als 10% pro Woche auf. Im Körper hält der Depoteffekt zwischen 6 - 12h an. Als Tagesdosis von dem Depotpräparat empfiehlt sich eine Menge von etwa 1 ml, was etwa 200 Mikrogramm entspricht.

[6] = Storage stability (loss of activity on storage); assay type: physicochemical
Procedure: as §1, §2
Für das Depotpräparat ist keine gekühlte Lagerung mehr erforderlich.

[7] = tested on: menschlichen Auges; test: Eye drops, effect on vision; assay type: in vivo, Patienten
Excerpt: Diese Fähigkeit zeigte insbesondere das Tetrapeptid His-Phe-Arg-Trp.
Es wurden täglich ca. 2pg pro Auge des Tetrapeptides in physiologischer Kochsalzlösung in der Form von Augentropfen verabreicht. Dabei wurden die vorstehend erwähnten Erfolge erzielt.

[8] = Augentropfen in physiologischer Kochsalzlösung, daily

Compound | Tolerability together with Cortison ([1]; in vivo) | Krankheitsbild (course) ([1]; subkutan, 2 - 15 Monate) | Reports of individual patients ([1]; subkutan, 2 - 15 Monate) | Share of patients with Gefühl der Frische, höheren Lebensmut und größerer Leistungsfähigkeit ([1]; subkutan, 2 - 15 Monate) | Spastik ([1]; subkutan, 2 - 15 Monate) | Absetzen von Cortison ([1]; withdrawal of Cortison under the tetrapeptide) | Equally effective amount (Wirkung entsprach) ([2]; amounts of the two substances with about the same effect) | Positivwirkung und Negativwirkung ([2]; comparison among peptides of the seven-residue chain) | Ergebnisse [3] | Wirkung (comparison between the substances) ([4]; patients) | Loss of effect im Körper [5] | Lagerfähigkeit ([6]; als Reinsubstanz tiefgekühlt) | Loss of Wirksamkeit ([6]; in destilliertem Wasser gelöst, bei Kühlschranktemperatur aufbewahrt) | Halbwertzeit ([6]; pure tetrapeptide, storage) | Fähigkeit des Patienten in bezug auf die Zusammensetzung von bewegten Bildern [7, 8] | Wahrnehmung von Lichtreizen [7, 8] | Sehfähigkeit des menschlichen Auges ([7]; in vivo) | kurzzeitiger Besserungseffekt (Kräftigung, Frischegefühl) ([4]; time to onset, at first application possibly only after one to two days)
N=C(N)NCCC[C@H](NC(=O)[C@H](Cc1ccccc1)NC(=O)[C@@H](N)Cc1cnc[nH]1)C(=O)N[C@@H](Cc1c[nH]c2ccccc12)C(=O)O [Tetrapeptid His-Phe-Arg-Trp, His-Phe-Arg-Trp] | gut nebeneinander vertragen | keine Verschlechterungen des Krankheitsbildes auf, sondern einige nachweisbare Verbesserungen | Normalisierung des (bisher zu niedrigen) Blutdrucks, bessere Durchblutung und Beweglichkeit der Extremitäten, Wiederherstellung des Tag-Nacht-Rhythmus (keine Schlafstörungen mehr), bessere Sehfähigkeit, Normalisierung des Zyklus, Minderung von Gleichgewichtsstörungen | Zwei Drittel | starkes Nachlasen der Spastik | wesentlich erleichtert und ohne Rückschläge oder Komplikationen beschleunigt | ~0,1 mg | stärksten Positivwirkung und der schwächsten Negativwirkung | besten Ergebnisse | im wesentlichen die gleiche Wirkung wie α -MSH und β-MSH | innerhalb kurzer Zeit | lagerfähig | etwa die Hälfte | ca. 1 Woche | wesentlich verbessert | stabilisiert | Verbesserung der Sehfähigkeit | –
β -Melanotropin [ß -MSH] | – | – | – | – | – | – | – | – | – | – | – | – | – | – | – | – | – | innerhalb der ersten Stunde
